# Measured values: patent US20250049812A1, “Compounds that Inhibit Necroptosis and Their Preparation Methods” (SHANGHAI INSTITUTE OF ORGANIC CHEMISTRY, CHINESE ACADEMY OF …, priority 2021, published 2025)
# System: Jurkat FADD (−/−) Cells
# Assay: TNF-α induced necroptosis of Jurkat FADD-deficient cells (CellTiter-Glo cell survival)
# Assay type: cell-based, human
# Conditions: Homo sapiens, Jurkat, 13 h
# Procedure: 1. Cell Activity Testing System (TNF-α Induces the Necroptosis of Jurkat Cells, the Human Leukemia Cells Deficient in FADD).
# (1) Cell culture: Jurkat FADD-deficient cells were cultured in an RPMI 1640 medium with 10% fetal bovine serum (FBS), 100 U/mL penicillin, and 100 […]. The cells were cultured in a cell culture incubator at 37° C. with 5% CO2. And all the cells were cryopreserved in a complete medium containing 5-10% DMSO. Medium change and passage were performed 3-4 times per week.
# (4) Experimental scheme: The system of TNF-α inducing the necroptosis of Jurkat FADD-deficient cells was used to screen for compounds with RIPKl kinase inhibitory activity.
# Jurkat FADD-deficient cells were evenly inoculated into a 384-well plate with each well added with a 40 μL complete culture medium, followed by the addition of 5 μL of the under-testing compound to each well. The initial concentration of the compounds was set at 25 μM (for some compounds with higher activity, the initial concentration was set at 0.5 μM), with a three-fold gradient dilution, totaling 12 gradient points. Three replicate wells were set for each compound. In addition, there was a blank control group and a control group with TNFα stimulation only. After the compound was added, the mixture needed to be centrifuged and incubated in a cell culture incubator at 37° C. containing 5% CO2 for 1 hour. After that, 5 μL of 5 ng/mL TNFα was added to stimulate the occurrence of necroptosis. After centrifugation and mixing, the mixture was placed in the cell culture incubator for 13 hours (until the cell death rate reaches 65% in the group with only TNF-α), with a total volume of 50 μL per well. Then, the steps below were followed to test the cell survival rate.
# The CellTiter-Glo® Buffer was removed from the reagent kit, equilibrated to room temperature, and used to dissolve the CellTiter-Glo® Substrate. The CellTiter-Glo® Reagent obtained could be directly used for the experiment.
# 15 μL of CellTiter-Glo® Reagent which has been equilibrated to room temperature was added to each well, and incubated in the dark for 15 minutes. After that, a microplate reader (Enspire Multimode Plate Reader of PerkinElmer, USA) was used to measure the chemiluminescence.
row,Compound,IC50 [nM]
1,"COC(=O)Cn1cc2c3c(cccc31)N(C)C(=O)C(NC(=O)c1nnc(Cc3ccccc3)[nH]1)C2 (racemic) [T-29, (±)-methyl2-(3-(5-benzyl-4H-1,2,4-triazole-3-carboxamide)-1-methyl-2-oxo-1,2,3,4-tetrahydro-6H-azacyclo [4,3,2-cd]indol-6-yl)acetate]",< 10
2,"CN1C(=O)C(NC(=O)c2nnc(Cc3ccccc3)[nH]2)Cc2cn(CCO)c3cccc1c23 (racemic) [T-33, (±)-5-benzyl-N-(6-(2-hydroxyethyl)-1-methyl-2-oxo-2,3,4,6-tetrahydro-1H-azacyclo [4,3,2-cd]indol-3-yl)-4H-1,2,4-triazole-3-carboxamide]",10 to 100

# Same assay, conditions: Homo sapiens; TNF-α induced necroptosis, Jurkat FADD-deficient cells, 13 hours, CellTiter-Glo; read-out: IC50
row,Compound,IC50 [nM]
1,"CN1C(=O)C(NC(=O)c2nnc(Cc3ccccc3)[nH]2)Cc2cn(-c3ccccc3)c3cccc1c23 (racemic) [T-24, (±)-5-benzyl-N-(1-methyl-2-oxo-6-phenyl-2,3,4,6-tetrahydro-1H-azacyclo [4,3,2-cd]indol-3-yl)-4H-1,2,4-triazole-3-carboxamide]",10 to 100
2,"CN1C(=O)[C@@H](NC(=O)c2nnc(Cc3ccccc3)[nH]2)Cn2cc(-c3cnn(C4CC4)c3)c3cccc1c32 [T-121, (S)-5-benzyl-N-(7-(1-cyclopropyl-1H-pyrazol-4-yl)-1-methyl-2-oxo-1,2,3,4-tetrahydro-1,4-diazepino [3,2,1-hi]indol-3-yl)-4H-1,2,4-triazole-3-carboxamide]",10 to 100
3,"CN1C(=O)C(NC(=O)c2cc(Oc3ccccc3)ccn2)Cc2cn(-c3ncccc3C(F)(F)F)c3cccc1c23 (racemic) [T-70, (±)-N-(1-methyl-2-oxo-6-(3-(trifluoromethyl)pyridin-2-yl)-2,3,4,6-tetrahydro-1H-azacyclo[4,3,2-cd]indol-3-yl)-4-phenoxy Pyridinamide]",< 10
4,"CN1C(=O)C(NC(=O)c2nnc(Cc3ccccc3)[nH]2)Cc2cn(-c3ncccc3S(=O)(=O)C3CC3)c3cccc1c23 (racemic) [T-109, (±)-5-benzyl-N-(6-(3-(cyclopropylsulfonyl)pyridin-2-yl)-1-methyl-2-oxo-2,3,4,6-tetrahydro-1H-azacyclo [4,3,2-cd]indol-3-yl)-4H-1,2,4-triazole-3-carboxamide]",< 10
5,"CN1C(=O)C(NC(=O)c2nnc(Cc3ccccc3)[nH]2)Cc2cn(-c3ncccc3C(=O)O)c3cccc1c23 (racemic) [T-46, (±)-2-(3-(5-benzyl-4H-1,2,4-triazole-3-carboxamide)-1-methyl-2-oxo-1,2,3,4-tetrahydro-6H-azacyclo [4,3,2-cd]indol-6-yl)nicotinic Acid]",100 to 1000
6,"CC(=O)c1cccnc1-n1cc2c3c(cccc31)N(C)C(=O)C(NC(=O)c1nnc(Cc3ccccc3)[nH]1)C2 (racemic) [T-59, (±)-N-(6-(3-acetylpyridin-2-yl)-1-methyl-2-oxo-2,3,4,6-tetrahydro-1H-azacyclo [4,3,2-cd]indol-3-yl)-5-benzyl-4H-1,2,4-triazole-3-carboxamide]",< 10
7,"CN1C(=O)C(NC(=O)c2nnc(Cc3ccccc3)[nH]2)Cc2cn(-c3ncccc3SC(F)(F)F)c3cccc1c23 (racemic) [T-111, (±)-5-benzyl-N-(1-methyl-2-oxo-6-(3-((trifluoromethyl)thio)pyridin-2-yl)-2,3,4,6-tetrahydro-1H-aza [4,3,2-cd]indol-3-yl)-4H-1,2,4-triazole-3-carboxamide]",< 10
8,"CN1C(=O)C(NC(=O)c2nnc(Cc3ccccc3)[nH]2)Cc2cn(C3CC3)c3cccc1c23 (racemic) [T-23, (±)-5-benzyl-N-(6-cyclopropyl-1-methyl-2-oxo-2,3,4,6-tetrahydro-1H-azacyclo [4,3,2-cd]indol-3-yl)-4H-1,2,4-triazole-3-carboxamide]",100 to 1000
9,"CC(C#N)Cn1cc2c3c(cccc31)N(C)C(=O)C(NC(=O)c1nnc(Cc3ccccc3)[nH]1)C2 (racemic) [T-27, (±)-5-benzyl-N-(6-(2-cyanopropyl)-1-methyl-2-oxo-2,3,4,6-tetrahydro-1H-azacyclo [4,3,2-cd]indol-3-yl)-4H-1,2,4-triazole-3-carboxamide]",10 to 100
10,"CN1C(=O)[C@@H](NC(=O)c2nnc(Cc3ccccc3)[nH]2)Cn2cc(-c3cnn(CC(F)(F)F)c3)c3cccc1c32 [T-124, (S)-5-benzyl-N-(1-methyl-2-oxo-7-(1-(2,2,2-trifluoroethyl)-1H-pyrazol-4-yl)-1,2,3,4-tetrahydro-[1,4]diazepine [3,2,1-hi]indol-3-yl)-4H-1,2,4-triazole-3-carboxamide]",10 to 100
11,"CN1C(=O)C(NC(=O)c2nnc(Cc3ccccc3)[nH]2)Cc2cn(CCF)c3cccc1c23 (racemic) [T-26, (±)-5-benzyl-N-(6-(2-fluoroethyl)-1-methyl-2-oxo-2,3,4,6-tetrahydro-1H-azacyclo [4,3,2-cd]indol-3-yl)-4H-1,2,4-triazole-3-carboxamide]",10 to 100
12,"CN1C(=O)C(NC(=O)c2nnc(Cc3ccccc3)[nH]2)Cn2cc(-c3cnoc3)c3cccc1c32 (racemic) [T-88, (±)-5-benzyl-N-(7-(isoxazol-4-yl)-1-methyl-2-oxo-1,2,3,4-tetrahydro-[1,4]diazepine [3,2,1-hi]indol-3-yl)-4H-1,2,4-triazole-3-carboxamide]",10 to 100
13,"CC(C)OC(=O)c1cccnc1-n1cc2c3c(cccc31)N(C)C(=O)C(NC(=O)c1nnc(Cc3ccccc3)[nH]1)C2 (racemic) [T-104, (±)-2-(3-(5-benzyl-4H-1,2,4-triazole-3-carboxamide)-1-methyl-2-oxo-1,2,3,4-tetrahydro-6H-azacyclo [4,3,2-cd]indol-6-yl)isopropyl Nicotinate]",10 to 100
14,"CN1C(=O)[C@@H](NC(=O)c2nnc(Cc3ccccc3)[nH]2)Cn2cc(-c3ccn[nH]3)c3cccc1c32 [T-116, (S)-5-benzyl-N-(1-methyl-2-oxo-7-(1H-pyrazol-5-yl)-1,2,3,4-tetrahydro-[1,4]diazepine [3,2,1-hi]indol-3-yl)-4H-1,2,4-triazole-3-carboxamide]",10 to 100
15,"CN1C(=O)C(NC(=O)c2nnc(Cc3ccccc3)[nH]2)Cc2cn(-c3ncccc3C3CC3)c3cccc1c23 (racemic) [T-52, (±)-5-benzyl-N-(6-(3-cyclopropylpyridin-2-yl)-1-methyl-2-oxo-2,3,4,6-tetrahydro-1H-azacyclo [4,3,2-cd]indol-3-yl)-4H-1,2,4-triazole-3-carboxamide]",< 10
16,"CN1C(=O)C(NC(=O)c2nnc(Cc3ccccc3)[nH]2)Cc2c[nH]c3cncc1c23 (racemic) [T-130, (±)-5-benzyl-N-(6-methyl-7-oxo-6,7,8,9-tetrahydro-2H-2,3,6-triazabenzene[cd]azulene-8-yl)-4H-1,2,4-triazol-3-carboxamide]",> 1000
17,"CN1C(=O)[C@@H](NC(=O)c2nnc(Cc3ccccc3)[nH]2)Cn2cc(-c3cnc(Cl)n3C)c3cccc1c32 [T-126, (S)-5-benzyl-N-(7-(2-chloro-1-methyl-1H-imidazol-5-yl)-1-methyl-2-oxo-1,2,3,4-tetrahydro-1,4-diazepine [3,2,1-hi]indol-3-yl)-4H-1,2,4-triazole-3-carboxamide]",10 to 100
18,"CN1C(=O)C(NC(=O)c2nnc(Cc3ccccc3)[nH]2)Cc2cn(-c3ncccc3C(C)(C)O)c3cccc1c23 (racemic) [T-55, (±)-5-benzyl-N-(6-(3-(2-hydroxypropan-2-yl)pyridin-2-yl)-1-methyl-2-oxy-2,3,4,6-tetrahydro-1H-azacyclo [4,3,2-cd]indol-3-yl)-4H-1,2,4-triazole-3-carboxamide]",10 to 100
19,"CCOC(=O)c1cc2cccc3c2n1CC(NC(=O)c1nnc(Cc2ccccc2)[nH]1)C(=O)N3C (racemic) [T-12, (±)-3-(5-benzyl-4H-1,2,4-triazole-3-carboxamido)-1-methyl-2-oxy-1,2,3,4-tetrahydro-[1,4] diazepino [3,2,1-hi] indole-6-carboxylate]",100 to 1000
20,"CCS(=O)(=O)c1cccnc1-n1cc2c3c(cccc31)N(C)C(=O)C(NC(=O)c1nnc(Cc3ccccc3)[nH]1)C2 (racemic) [T-108, (±)-5-benzyl-N-(6-(3-(ethylsulfonyl)pyridin-2-yl)-1-methyl-2-oxo-2,3,4,6-tetrahydro-1H-aza [4,3,2-cd]indol-3-yl)-4H-1,2,4-triazole-3-carboxamide]",10 to 100
21,"CN1C(=O)C(NC(=O)c2nnc(Cc3ccccc3)[nH]2)Cn2cc(Br)c3cccc1c32 (racemic) [T-11, (±)-5-benzyl-N-(7-bromo-1-methyl-2-oxo-1,2,3,4-tetrahydro-[1,4]diazepino [3,2,1-hi]indol-3-yl)-4H-1,2,4-triazole-3-carboxamide]",10 to 100

# Same assay, conditions: TNF-α induced necroptosis, Jurkat FADD-deficient cells, 13 hours, CellTiter-Glo; read-out: IC50
row,Compound,IC50 [nM]
1,"Cc1nn(C)c(C)c1-c1cn2c3c(cccc13)N(C)C(=O)C(NC(=O)c1nnc(Cc3ccccc3)[nH]1)C2 (racemic) [T-119, (±)-5-benzyl-N-(1-methyl-2-oxo-7-(1,3,5-trimethyl-1H-pyrazol-4-yl)-1,2,3,4-tetrahydro-[1,4]diazepine [3,2,1-hi]indol-3-yl)-4H-1,2,4-triazole-3-carboxamide]",< 10
